Source: patent publication US11214562B2, “Cyclohexyl benzamide compounds” (Eli Lilly and Company, priority 2016, dated 2022)

Tests used:
GPR142 = target: T1, GPR142 (Mus musculus, UniProt Q7TQN9); test: Intraperitoneal glucose tolerance test (IPGTT); format: in vivo; settings: male C57BL/6 mice, oral dose 90 min prior to 2 g/kg i.p. glucose challenge
T1 construct: from tissue; host or cells: whole animal, male C57BL/6 mice
T1 sequence (Q7TQN9 1-365): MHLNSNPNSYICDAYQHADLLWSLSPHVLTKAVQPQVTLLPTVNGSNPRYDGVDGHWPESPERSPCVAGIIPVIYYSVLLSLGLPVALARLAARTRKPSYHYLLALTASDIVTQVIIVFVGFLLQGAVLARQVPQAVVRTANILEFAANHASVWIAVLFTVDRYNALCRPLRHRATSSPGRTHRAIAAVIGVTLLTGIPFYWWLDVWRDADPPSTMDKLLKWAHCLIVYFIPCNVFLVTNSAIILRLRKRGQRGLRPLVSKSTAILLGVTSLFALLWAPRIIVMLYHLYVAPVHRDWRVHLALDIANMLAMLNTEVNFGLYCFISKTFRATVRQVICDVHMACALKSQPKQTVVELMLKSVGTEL
Text: Intraperitoneal Glucose Tolerance Tests (IPGTT)
The IPGTT assay is used to examine the ability of a compound to activate GPR142 in vivo resulting in anti-diabetic efficacy, i.e. reduction in plasma glucose levels. Male C57BL/6 mice (8-10 weeks of age) are fed normal rodent chow diet and water ad libitum. On the night before the study, fast the animals overnight in clean cages. On the morning of the study, orally dose the animals with either vehicle or a test compound at the indicated doses 90 min prior to the glucose challenge (2 g/kg) by intraperitoneal injection. Determine the blood glucose levels from tail bleeds taken immediately prior to compound dosing (−90 min) and 0, 15, 30, and 60 min after glucose challenge using handheld glucometers. Use the blood glucose profile from t=0 to t=60 min to calculate an area under the curve (AUC) for each treatment. Calculate the percent glucose lowering. The AUC is calculated for each treatment group with respect to the AUC of vehicle group. A compound with a reduction in glucose AUC (P<0.05) is considered positive in the assay.

human GPR142 = target: T2, human GPR142 (Homo sapiens, UniProt Q7Z601); test: GPR142 agonist effect as measured by IP-1 assay (IP-One HTRF); format: cell-based
T2 construct: expressed in transfected cells; host or cells: HEK293 (kept under G418 selection)
T2 sequence (Q7Z601 1-462): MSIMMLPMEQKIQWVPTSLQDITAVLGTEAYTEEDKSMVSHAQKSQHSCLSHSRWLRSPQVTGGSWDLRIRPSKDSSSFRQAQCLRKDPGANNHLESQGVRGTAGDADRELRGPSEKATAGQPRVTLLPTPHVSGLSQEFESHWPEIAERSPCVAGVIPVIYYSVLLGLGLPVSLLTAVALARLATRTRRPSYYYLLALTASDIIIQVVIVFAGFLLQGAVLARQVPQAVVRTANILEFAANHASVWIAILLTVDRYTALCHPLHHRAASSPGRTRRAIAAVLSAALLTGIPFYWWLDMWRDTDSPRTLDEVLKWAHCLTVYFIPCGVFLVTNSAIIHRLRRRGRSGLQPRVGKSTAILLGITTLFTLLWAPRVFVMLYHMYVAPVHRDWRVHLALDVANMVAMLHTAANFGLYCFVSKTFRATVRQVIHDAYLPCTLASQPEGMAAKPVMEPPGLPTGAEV
Method: Biological Assays GPR142 Agonist Effect as Measured by IP-1 Assay
HEK293 cells expressing human GPR142 are maintained in DMEM supplemented with 10% FBS and 800 μg/ml G418 (Geneticin®) at 37° C. and 5% CO2. Plate the cells in 384 well plates at 5000 cells per well and allow 18 hrs for attachment. Add the test compound at varying concentrations ranging from 30 μM to 1 nM. Incubate the cells for 1 hr. IP-1 measurements are performed using an IP-One HTRF® assay kit (Cisbio) according to manufacturer's protocol using an assay buffer containing 1×HBSS (+Ca, +Mg), 0.1% BSA, 50 mM LiCl and 20 mM HEPES, pH 7.2. Stop the reaction by the addition of IP1-d2 (IP-1 coupled to an organic HTRF acceptor) followed by cryptate solution (http://www.htrf.com/usa/htrf-chemistry). Incubate the plates at 25° C. for 1 hr. Read the fluorescence in an Envision instrument at 665 nm and 620 nm wavelength. Calculate the ratio of 665 nm/620 nm fluorescence and convert to IP-1 levels using an IP-1 standard curve. The data is fit to a 4 parameter-fit logistics to determine EC50 values.

`Cc1ncn(C)c1-c1nnc([C@H]2CCC[C@@H](N(C)C(=O)c3cccc(Cl)c3)C2)[nH]1` [Example 1] was tested. Which “IPGTT outcome (reduction in glucose AUC, P<0.05, is positive)” value (GPR142) did it give?
The value was “positive”.

And the “ED50 (glucose AUC lowering in IPGTT)” value (GPR142; AUC t=0 to 60 min)?
The value was 0.25 mpk.

And the EC50 (human GPR142; HEK293 cells expressing human GPR142, 1 hr incubation, IP-1 HTRF, read-out: hGPR142 IP1 EC50)?
Its EC50 is 14.4 nM.

What about the “hGPR142 IP1 relative efficacy” value (human GPR142; HEK293 cells expressing human GPR142, IP-1 HTRF) of the same compound?
Its value is 110%.
